Measurements from US20250186391A1, “ORAL COMPLEMENT FACTOR D INHIBITORS” (BioCryst Pharmaceuticals, Inc., priority 2019, published 2025).

Target: Factor D (Homo sapiens (Human), UniProt P00746)
Assay: Factor D esterolytic assay
Format: biochemical
Details: Z-Lys-SBzl substrate, 100 mM HEPES, 500 mM NaCl, pH 7.5, 10% DMSO; tested a minimum of three times; read-out: Measured Ki (IC50) Value for Compounds: IC50
How it was run: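 Buffer was 100 mM HEPES, 500 mM NaCl, pH 7.5 with 10% DMSO. Compound and Factor D were combined, then Z-Lys-SBzl (1.29 mM) was added either at once or following room-temperature incubation. Rates came from DTNB colour at 405 nm minus 690 nm over 600 s, with percent inhibition giving IC50 over at least three tests.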

Factor D, sequence (P00746 26-253): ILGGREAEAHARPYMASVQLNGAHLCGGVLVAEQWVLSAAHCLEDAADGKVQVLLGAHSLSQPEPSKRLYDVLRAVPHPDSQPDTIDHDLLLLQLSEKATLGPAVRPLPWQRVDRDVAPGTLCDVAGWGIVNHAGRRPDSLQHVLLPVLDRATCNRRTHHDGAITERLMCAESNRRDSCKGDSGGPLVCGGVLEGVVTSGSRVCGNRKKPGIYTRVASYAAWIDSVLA

| Structure (SMILES) | IC50 |
| --- | --- |
| NCc1cccc(-c2ccc3c(c2)c(COc2ccccc2CC(=O)O)nn3C2CCC2)c1 [Compound 298d, 2-(2-((5-(3-(aminomethyl)phenyl)-1-cyclobutyl-1H-indazol-3-yl)methoxy)phenyl)acetic acid] | < 1000 nM |
| CC(C)n1nc(COc2ccccc2C(=O)O)c2cc(-c3cccc(CN)c3)ccc21 [Compound 299d, 2-((5-(3-(aminomethyl)phenyl)-1-isopropyl-1H-indazol-3-yl)methoxy)benzoic acid] | < 1000 nM |
| COc1c(CN)cccc1-c1cc2c(COc3ccccc3CC(=O)O)cccc2o1 [Compound 300d, 2-(2-((2-(3-(aminomethyl)-2-methoxyphenyl)benzofuran-4-yl)methoxy)phenyl)acetic acid] | 1000 to 10000 nM |
| NCc1cccc(-c2ccc3occ(COc4c(CC(=O)O)cccc4C(=O)O)c3c2)c1 [Compound 301d, 2-((5-(3-(aminomethyl)phenyl)benzofuran-3-yl)methoxy)-3-(carboxymethyl)benzoic acid] | < 1000 nM |
| CC(C)n1nc(COc2cccc(C(=O)O)c2)c2cc(-c3cccc(CN)c3)ccc21 [Compound 303d, 3-((5-(3-(aminomethyl)phenyl)-1-isopropyl-1H-indazol-3-yl)methoxy)benzoic acid] | > 10000 nM |
| CC(C)n1nc(COc2cccc(CC(=O)O)c2)c2cc(-c3cccc(CN)c3)ccc21 [Compound 304c, 2-(3-((5-(3-(aminomethyl)phenyl)-1-isopropyl-1H-indazol-3-yl)methoxy)phenyl)acetic acid] | > 10000 nM |
| CC(C)n1nc(COc2c(C#N)cccc2CC(=O)O)c2cc(-c3cccc(CN)c3)ccc21 [Compound 305c, 2-(2-((5-(3-(aminomethyl)phenyl)-1-isopropyl-1H-indazol-3-yl)methoxy)-3-cyanophenyl)acetic acid] | < 1000 nM |
| Cc1cccc(CC(=O)O)c1OCc1nn(C(C)C)c2ccc(-c3cccc(CN)c3)cc12 [Compound 306c, 2-(2-((5-(3-(aminomethyl)phenyl)-1-isopropyl-1H-indazol-3-yl)methoxy)-3-methylphenyl)acetic acid] | < 1000 nM |
| CC(C)n1nc(COc2ccccc2CC(=O)O)c2cc(-c3cccc(CN)c3N)ccc21 [Compound 307c, 2-(2-((5-(2-amino-3-(aminomethyl)phenyl)-1-isopropyl-1H-indazol-3-yl)methoxy)phenyl)acetic acid] | < 1000 nM |
| CC(C)n1nc(COc2ccccc2CCC(=O)O)c2cc(-c3cccc(CN)c3)ccc21 [Compound 308d, 3-(2-((5-(3-(aminomethyl)phenyl)-1-isopropyl-1H-indazol-3-yl)methoxy)phenyl)propanoic acid] | 1000 to 10000 nM |
| COc1ccc(CC(=O)O)c(OCc2nn(C)c3ccc(-c4cccc(CN)c4F)cc23)c1 [Compound 309b, 2-(2-((5-(3-(aminomethyl)-2-fluorophenyl)-1-methyl-1H-indazol-3-yl)methoxy)-4-methoxyphenyl)acetic acid] | < 1000 nM |
| CC(C)n1nc(COc2ccccc2CC(=O)O)c2cc(-c3cccc(CN)c3F)ccc21 [Compound 310b, 2-(2-((5-(3-(aminomethyl)-2-fluorophenyl)-1-isopropyl-1H-indazol-3-yl)methoxy)phenyl)acetic acid] | < 1000 nM |
| CC(C)n1nc(COc2ccccc2CC(=O)O)c2cc(-c3ccc(CN)cc3)ccc21 [Compound 311c, 2-(2-((5-(4-(aminomethyl)phenyl)-1-isopropyl-1H-indazol-3-yl)methoxy)phenyl)acetic acid] | > 10000 nM |
| CCCCC(C(=O)O)c1ccccc1OCc1nn(C(C)C)c2ccc(-c3cccc(CN)c3)cc12 (stereo not drawn) [Compound 312f, 2-(2-((5-(3-(aminomethyl)phenyl)-1-isopropyl-1H-indazol-3-yl)methoxy)phenyl)hexanoic acid] | 1000 to 10000 nM |
| CC(C)n1nc(C(=O)Nc2ccccc2C(=O)O)c2cc(-c3cccc(CN)c3)ccc21 [Compound 314e, 2-(5-(3-(aminomethyl)phenyl)-1-isopropyl-1H-indazole-3-carboxamido)benzoic acid] | > 10000 nM |

Next, values leading:

| IC50 | Structure (SMILES) |
| --- | --- |
| < 1000 nM | Cc1ccc(CC(=O)O)c(OCc2coc3c(C)cc(-c4cccc(CN)c4)cc23)c1 [Compound 313c, 2-(2-((5-(3-(aminomethyl)phenyl)-7-methylbenzofuran-3-yl)methoxy)-4-methylphenyl)acetic acid] |
| < 1000 nM | CCOC(=O)Cc1ccc(OC)cc1OCc1nn(C)c2ccc(-c3ccnc(CN)c3)cc12 [Compound 315b, ethyl 2-(2-((5-(2-(aminomethyl)pyridin-4-yl)-1-methyl-1H-indazol-3-yl)methoxy)-4-methoxyphenyl)acetate] |
| < 1000 nM | COc1ccc(CC(=O)O)c(OCc2nn(C)c3ccc(-c4ccnc(CN)c4F)cc23)c1 [Compound 316c, 2-(2-((5-(2-(aminomethyl)-3-fluoropyridin-4-yl)-1-methyl-1H-indazol-3-yl)methoxy)-4-methoxyphenyl)acetic acid] |
| 1000 to 10000 nM | CC(C)n1nc(COc2ccccc2CC(=O)O)c2cc(-c3ccc(O)c(CN)c3)ccc21 [Compound 317d, 2-(2-((5-(3-(aminomethyl)-4-hydroxyphenyl)-1-isopropyl-1H-indazol-3-yl)methoxy)phenyl)acetic acid] |
| < 1000 nM | CC(C)n1nc(COc2ccccc2CC(=O)O)c2cc(-c3cccc(CN)c3O)ccc21 [Compound 318f, 2-(2-((5-(3-(aminomethyl)-2-hydroxyphenyl)-1-isopropyl-1H-indazol-3-yl)methoxy)phenyl)acetic acid] |
| < 1000 nM | CCc1oc2ccc(-c3cccc(CN)c3)cc2c1COc1cc(C)ccc1CC(=O)O [Compound 319c, 2-(2-((5-(3-(aminomethyl)phenyl)-2-ethylbenzofuran-3-yl)methoxy)-4-methylphenyl)acetic acid] |
| < 1000 nM | CC(C)n1nc(COc2ccccc2CC(=O)O)c2cc(-c3cccc([C@H](C)N)c3)ccc21 [Compound 320b, (S)-2-(2-((5-(3-(1-aminoethyl)phenyl)-1-isopropyl-1H-indazol-3-yl)methoxy)phenyl)acetic acid] |
| 1000 to 10000 nM | CC(C)n1nc(COc2ccccc2CC(=O)O)c2cc(-c3cccc(N)c3)ccc21 [Compound 321c, 2-(2-((5-(3-aminophenyl)-1-isopropyl-1H-indazol-3-yl)methoxy)phenyl)acetic acid] |
| > 10000 nM | CC(C)n1nc(COc2ccccc2CC(=O)O)c2cc(-c3ccc(N)cc3)ccc21 [Compound 322c, 2-(2-((5-(4-aminophenyl)-1-isopropyl-1H-indazol-3-yl)methoxy)phenyl)acetic acid] |
| < 1000 nM | CC(C)n1nc(COc2ccccc2CC(=O)O)c2cc(-c3cccc([C@@H](C)N)c3)ccc21 [Compound 323b, (R)-2-(2-((5-(3-(1-aminoethyl)phenyl)-1-isopropyl-1H-indazol-3-yl)methoxy)phenyl)acetic acid] |
| < 1000 nM | COc1c(CN)cccc1-c1cc(OC)c2occ(COc3ccccc3CC(=O)O)c2c1 [Compound 324d, 2-(2-((5-(3-(aminomethyl)-2-methoxyphenyl)-7-methoxybenzofuran-3-yl)methoxy)phenyl)acetic acid] |
| 1000 to 10000 nM | COc1c(CN)cccc1-c1ccc2c(c1)c(COc1ccccc1CC(=O)O)nn2C(C)C [Compound 325b, 2-(2-((5-(3-(aminomethyl)-2-methoxyphenyl)-1-isopropyl-1H-indazol-3-yl)methoxy)phenyl)acetic acid] |
| 1000 to 10000 nM | COc1c(-c2ccc3c(c2)c(COc2ccccc2CC(=O)O)nn3C(C)C)ccnc1CN [Compound 326d, 2-(2-((5-(2-(aminomethyl)-3-methoxypyridin-4-yl)-1-isopropyl-1H-indazol-3-yl)methoxy)phenyl)acetic acid] |
| 1000 to 10000 nM | COc1c(-c2ccc3c(c2)c(COc2ccccc2CC(=O)O)nn3C2CCCC2)ccnc1CN [Compound 327d, 2-(2-((5-(2-(aminomethyl)-3-methoxypyridin-4-yl)-1-cyclopentyl-1H-indazol-3-yl)methoxy)phenyl)acetic acid] |
| > 10000 nM | COc1c(-c2ccc3c(c2)c(COc2ccccc2CC(=O)O)nn3C2CCC2)ccnc1CN [Compound 328d, 2-(2-((5-(2-(aminomethyl)-3-methoxypyridin-4-yl)-1-cyclobutyl-1H-indazol-3-yl)methoxy)phenyl)acetic acid] |
| 1000 to 10000 nM | COc1c(-c2cc3c(COc4ccccc4CC(=O)O)cccc3o2)ccnc1CN [Compound 329d, 2-(2-((2-(2-(aminomethyl)-3-methoxypyridin-4-yl)benzofuran-4-yl)methoxy)phenyl)acetic acid] |
| < 1000 nM | Cc1c(CN)cccc1-c1ccc2c(c1)c(COc1ccccc1CC(=O)O)nn2C(C)C [Compound 330c, 2-(2-((5-(3-(aminomethyl)-2-methylphenyl)-1-isopropyl-1H-indazol-3-yl)methoxy)phenyl)acetic acid] |
| 1000 to 10000 nM | CC(C)n1nc(COc2ccccc2CC(=O)O)c2cc(-c3cc(CN)cc(C4CC4)c3)ccc21 [Compound 331e, 2-(2-((5-(3-(aminomethyl)-5-cyclopropylphenyl)-1-isopropyl-1H-indazol-3-yl)methoxy)phenyl)acetic acid] |
| > 10000 nM | CC(C)n1nc(COc2ccccc2CC(=O)O)c2cc(-c3cc(CN)cc(C4CCOCC4)c3)ccc21 [Compound 332e, 2-(2-((5-(3-(aminomethyl)-5-(tetrahydro-2H-pyran-4-yl)phenyl)-1-isopropyl-1H-indazol-3-yl)methoxy)phenyl)acetic acid] |
| > 10000 nM | CC(C)n1nc(COc2ccccc2CC(=O)O)c2cc(-c3cc(CN)cc(C4CCN(C)CC4)c3)ccc21 [Compound 333f, 2-(2-((5-(3-(aminomethyl)-5-(1-methylpiperidin-4-yl)phenyl)-1-isopropyl-1H-indazol-3-yl)methoxy)phenyl)acetic acid] |
| < 1000 nM | Cn1nc(COc2ccccc2CC(=O)O)c2cc(-c3cccc(CN)c3)c3occc3c21 [Compound 3021, 2-(2-((5-(3-(aminomethyl)phenyl)-1-methyl-1H-furo[2,3-g]indazol-3-yl)methoxy)phenyl)acetic acid] |
